Test results published in article PMC8220418, “A fragment-based approach to assess the ligandability of ArgB, ArgC, ArgD and ArgF in the L-arginine biosynthetic pathway of Mycobacterium tuberculosis” (Computational and Structural Biotechnology Journal, 2021).
Values after ≈ are worked out from the molar mass of the structure shown. Where two headings read alike, the source gives them in different places.

Experiments:
[1] = target: T1, ArgB (Mycobacterium tuberculosis, UniProt P9WQ01); assay: Differential scanning fluorimetry (DSF) fragment screening against ArgB; assay type: binding; settings: known ligands (positive controls); 1 mM for ATP, N-acetyl-glutamate, L-arginine
Method: (§1) Fragment screening was carried out in a 96-well PCR plate using a CFX Connect Real-time PCR Detection System (Bio-Rad) for DSF. For ArgB, each 25 μL reaction mixture contained 10 µM ArgB, 100 mM HEPES (pH 7.5), 200 mM NaCl, 5x SYPRO Orange, 5% DMSO (v/v), and fragments at 5 mM. For ArgF each 25 μL reaction mixture contained 5 µM ArgF, 25 mM Tris-HCl (pH 8.0), 150 mM NaCl, 5x SYPRO Orange dye, 5 mM fragments and 5% DMSO (v/v). For ArgC and ArgD, the 25 μL reaction volume consisted of the following: 2.5 μM ArgC/5 μM ArgD, 100 mM sodium phosphate pH 7, 200 mM NaCl, 5x SYPRO Orange, and 5 mM fragments (960 fragment library). The protocol implemented increased temperature by 0.5 °C after every 30 s, going from 25 °C to 95 °C and measuring SYPRO Orange fluorescence for each temperature cycle. The melt curve RFU (relative fluorescence units) and derivative -d(RFU)/dT values were analysed and plotted using a macros-enabled Excel Workbook: the minima of the melt curves were recorded as the melting temperature (Tm) of the enzymes in the presence of each fragment. The Tm of the reference control (protein in the presence of DMSO) was subtracted from all the readings to calculate ΔTm.

[2] = target: T1, ArgB; assay: biochemical; assay type: binding; settings: ITC Kd, six-site sequential binding model, 25 °C, sequential binding, six-site model
[3] = target: T1, ArgB; assay: ArgB enzymatic assay (ADP release coupled to NADH oxidation, pyruvate kinase/lactate dehydrogenase); assay type: biochemical; settings: IC50, 0.5 µM ArgB, 0.3 mM ATP, 1.25 mM NAG, 10% DMSO
Method: ArgB activity was assessed by a colorimetric assay that followed the release of ADP by measuring the oxidation of NADH at 340 nm, for 30 min, in the presence of pyruvate kinase and lactate dehydrogenase in a PHERAstar plate-reader (BMG-Labtech). […]. Inhibitors were also individually screened against the coupled enzymes to eliminate any compounds interfering with the other assay components. Competition assays were performed in the same conditions using 0.3 mM of ATP or NAG and varying the other substrate concentration.

[4] = test system: M. tuberculosis H37Rv; assay: microbe, parasite or virus in culture; assay type: cell-based, Mycobacterium tuberculosis
[5] = test system: M. tuberculosis ΔargB-c; assay: microbe, parasite or virus in culture; assay type: cell-based, Mycobacterium tuberculosis
[6] = test system: M. tuberculosis MDR strain V2475; assay: microbe, parasite or virus in culture; assay type: cell-based, Mycobacterium tuberculosis; settings: Mycobacterium tuberculosis
[7] = target: ArgF (Mycobacterium tuberculosis, UniProt P9WIT9); assay: biochemical; assay type: binding; settings: natural ligands at 1 mM
Chain of ArgF (P9WIT9 whole entry, the tested form may be a part): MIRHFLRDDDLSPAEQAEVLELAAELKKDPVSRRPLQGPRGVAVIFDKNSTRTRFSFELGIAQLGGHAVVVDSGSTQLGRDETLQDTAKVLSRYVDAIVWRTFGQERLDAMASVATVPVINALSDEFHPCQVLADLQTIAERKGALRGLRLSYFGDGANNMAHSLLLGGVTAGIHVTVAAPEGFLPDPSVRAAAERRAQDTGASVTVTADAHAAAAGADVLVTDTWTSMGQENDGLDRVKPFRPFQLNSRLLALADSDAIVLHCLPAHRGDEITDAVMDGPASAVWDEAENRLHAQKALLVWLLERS
Method: Fragment screening was carried out in a 96-well PCR plate using a CFX Connect Real-time PCR Detection System (Bio-Rad) for DSF. […] For ArgF each 25 μL reaction mixture contained 5 µM ArgF, 25 mM Tris-HCl (pH 8.0), 150 mM NaCl, 5x SYPRO Orange dye, 5 mM fragments and 5% DMSO (v/v). […] The protocol implemented increased temperature by 0.5 °C after every 30 s, going from 25 °C to 95 °C and measuring SYPRO Orange fluorescence for each temperature cycle. The melt curve RFU (relative fluorescence units) and derivative -d(RFU)/dT values were analysed and plotted using a macros-enabled Excel Workbook: the minima of the melt curves were recorded as the melting temperature (Tm) of the enzymes in the presence of each fragment. The Tm of the reference control (protein in the presence of DMSO) was subtracted from all the readings to calculate ΔTm.

[8] = target: T2, ArgC (Mycobacterium tuberculosis, UniProt P9WPZ9); assay: Differential scanning fluorimetry (DSF) fragment screening against ArgC; assay type: binding; settings: for DSF ΔTm: 1 mM co-factor, average across all DSF runs; for ΔTm at 5000 µM: fragments at 5 mM, 2.5 μM ArgC
T2 sequence (P9WPZ9 whole entry, the tested form may be a part): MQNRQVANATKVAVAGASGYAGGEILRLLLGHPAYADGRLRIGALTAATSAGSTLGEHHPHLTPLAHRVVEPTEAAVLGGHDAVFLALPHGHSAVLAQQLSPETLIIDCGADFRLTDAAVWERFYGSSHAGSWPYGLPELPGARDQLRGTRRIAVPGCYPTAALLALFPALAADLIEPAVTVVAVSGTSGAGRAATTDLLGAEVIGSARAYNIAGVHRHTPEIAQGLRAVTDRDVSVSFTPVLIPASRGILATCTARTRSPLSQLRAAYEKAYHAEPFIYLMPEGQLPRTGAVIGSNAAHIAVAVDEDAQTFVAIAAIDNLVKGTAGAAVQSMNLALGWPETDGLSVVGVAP
Method: as §1

[9] = target: T2, ArgC; assay: Surface plasmon resonance with immobilised ArgC; assay type: binding
Method: Low molecular weight (LMW) screening with the DSF fragment hits was carried out using the T200 Biacore instrument (GE Healthcare Life Sciences). A series S CM5 sensor chip (GE Healthcare Life Sciences) was used for the immobilisation of ArgC on the carboxymethylated dextran matrix through amine coupling. A 25 μg/mL ArgC dilution was prepared in the optimal coupling buffer (sodium acetate pH 5), and immobilisation was performed by manual instructions. The immobilised ArgC was tested using dilution series (19 μM to 2.5 mM) of NADP^+ and NADPH. 50 mM fragment DMSO stocks were used to prepare 1 mM dilutions in the SPR buffer consisting of 10 mM sodium phosphate pH 7.0, 150 mM NaCl and 2% DMSO (v/v). Each NADP^+/NADPH and fragment dilution was injected once at a flow rate of 30 μL/min for a contact time of 30 s, SPR Running buffer (10 mM sodium phosphate pH 7.0 and 150 mM NaCl) was passed for 320 s at the same flow rate, and 50% DMSO v/v (diluted in SPR running buffer) was injected at the end of the cycle to remove undissociated analyte. Solvent correction was carried out to account for DMSO mismatch between the analyte dilutions and the SPR running buffer.
The fragment hits obtained previously were injected at a concentration of 1 mM. The sensorgrams for all the analytes were inspected visually to exclude fragments with either no discernible response or a “sticky” profile from further analysis (representative sensorgrams for fragment binders are shown in Fig. S2a and b). The binding level was calculated using the T200 software and adjusted for molecular weights of the analytes (Fig. S2c and d). For ArgC, 22 fragments with a binding level response ≥20 RU were shortlisted, whereas in the case of ArgD, 20 fragments with a response ≥10 RU were shortlisted for crystallographic validation. Fragments were thereafter described either as SPR ‘positive’ or ‘negative’.

[10] = target: T2, ArgC; assay: X-ray crystallography of ArgC soaked with fragments (binding site); settings: crystal soaking
Method: ArgC crystals grown in pH 5.5 were first soaked in 1.5 µL drops containing the mother liquor and 5 mM NADP^+ for 2 h in hanging drops that were equilibrated against a reservoir of 500 µL. Thereafter, the crystals were transferred to drops containing the crystallisation condition and an SPR-validated fragments (20 mM, 10% DMSO), which were equilibrated against 500 µL of mother liquor also containing a corresponding percentage of DMSO overnight at 19 °C. ArgC crystals grown in pH 7 were soaked with 5 mM NADP^+ only for 5–10 min due to the rapid development of cracks, and transferred to the fragment soaking drops for 5–10 min from where they were fished and frozen.
X-ray diffraction data (single-wavelength anomalous diffraction) were collected on beamlines i02, i03, i04, i04-1 and i24 at the Diamond Light Source (DLS), UK and on id30B at The European Synchrotron Radiation Facility (ESRF). Diffraction data were processed and reduced with autoPROC from Global Phasing Limited or Xia2 [31]. The apo-form of ArgB was crystallised in the R3_2 space group with one protomer per asymmetric unit (ASU) and the ArgB:NAG complex in the P6_3 space group with two protomers per ASU. ArgF was crystallized in the P2_1 space group with 6 protomers in the ASU. ArgC was crystallised in C2 and P2_1 space groups, with 2 and 4/8 protomers per ASU respectively. ArgD was crystallised in the P2_1 space group as well but with 4 protomers in the ASU.
Initial phases were determined with PHASER [32] from PHENIX software package using the M. tuberculosis ArgB structure (PDB: 2AP9), M. tuberculosis ArgF structure (PDB: 2P2G), M. tuberculosis ArgC structure (PDB: 2I3G) and E. coli Succinyl-ornithine transaminase (AstC, 42% sequence identity, PDB: 4ADB) as a search models, respectively for ArgB, ArgF, ArgC and ArgD. Model building was done with Coot, and refinement was performed in PHENIX [33], [35] for ArgB, ArgF, and ArgC. For ArgD, after the initial molecular replacement solution and a single cycle of refinement, PHENIX AutoBuild was used to generate a model for M. tuberculosis ArgD that was then refined with Coot and PHENIX. Structure validation was performed using Coot and PHENIX tools, [34]. All figures were prepared with PyMOL (The PyMOL Molecular Graphics System, Version 2.0 Schrodinger, LLC).

[11] = target: T2, ArgC; assay: ArgC enzymatic assay (NADPH oxidation at 340 nm); assay type: biochemical; settings: 2 mM fragment, 3.5 μM ArgC, 2.5% DMSO
Method: To synthesise the ArgC substrate, a reaction mixture containing 3 μM ArgB, 1 mM NAG and 1 mM ATP in 50 mM Tris-HCl pH 7.5, 100 mM NaCl and 40 mM MgCl2 was made and the reaction was allowed to proceed for 1–1.5 h at room temperature. Thereafter, 100 μL of the ArgC reaction mixture consisting of 50 mM Tris-HCl pH 7.5, 100 mM NaCl and 0.6 mM NADPH (concentration in 200 μL), was added to each well together with 100 μL of the ArgB reaction mixture and followed for 30 min at 35 °C by measuring the oxidation of NADPH at 340 nm. Controls with only NADPH, 2.5% DMSO (v/v) and no ArgC, as well as only NADPH, 4 mM fragment and no ArgC were prepared. Baseline ArgC activity was assayed with and without DMSO, the effect of 2.5% and 5% DMSO on enzymatic activity was also tested. […] All conditions were prepared in triplicates. 3.5 μM ArgC was added just before measurements were started.

[12] = target: ArgD (Mycobacterium tuberculosis, UniProt P9WPZ7); assay: Differential scanning fluorimetry (DSF) against ArgD; assay type: binding
Chain of ArgD (P9WPZ7 whole entry, the tested form may be a part): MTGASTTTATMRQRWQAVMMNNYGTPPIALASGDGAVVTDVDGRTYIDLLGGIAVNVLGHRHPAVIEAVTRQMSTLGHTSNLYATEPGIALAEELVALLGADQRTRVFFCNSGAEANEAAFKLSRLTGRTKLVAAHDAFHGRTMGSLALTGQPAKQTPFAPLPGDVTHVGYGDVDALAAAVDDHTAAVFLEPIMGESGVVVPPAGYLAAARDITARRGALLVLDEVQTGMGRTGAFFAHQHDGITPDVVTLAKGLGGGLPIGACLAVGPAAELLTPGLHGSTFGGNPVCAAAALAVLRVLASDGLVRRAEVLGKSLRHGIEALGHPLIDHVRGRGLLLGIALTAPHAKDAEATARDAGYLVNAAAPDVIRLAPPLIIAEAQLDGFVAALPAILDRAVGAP

[13] = fragments at 1 mM, adjusted for molecular weight

SMILES: Nc1ncnc2c1ncn2[C@@H]1O[C@H](COP(=O)(O)OP(=O)(O)OP(=O)(O)O)[C@@H](O)[C@H]1O [ATP]
- DSF ΔTm [1]: +2.0 °C

SMILES: N=C(N)NCCC[C@H](N)C(=O)O [L-arginine]
- ΔTm at 1000 µM [1]: 11.8 °C
- Kd ([2]; 1st value): 4.5 µM
- Kd ([2]; 2nd value): 4.8 µM
- Kd ([2]; 3rd value): 6.1 µM
- Kd ([2]; 4th value): 9.4 µM
- Kd ([2]; 5th value): 12.9 µM
- Kd ([2]; 6th value): 42 µM
- IC50 [3]: 146 ± 1 µM

SMILES: NC(N)=NOCC[C@H](N)C(=O)O [L-canavanine, reference compound]
- ΔTm at 1000 µM [1]: 7.2 °C
- Kd ([2]; 1st value): 4.5 µM
- Kd ([2]; 2nd value): 4.8 µM
- Kd ([2]; 3rd value): 6.4 µM
- Kd ([2]; 4th value): 34 µM
- Kd ([2]; 5th value): 35 µM
- Kd ([2]; 6th value): 137 µM
- IC50 [3]: 1460 ± 2 µM
- MIC ([4]; Mycobacterium tuberculosis, media without arginine): 50 µg/mL (≈ 284 µM)
- Inhibitory activity on growth with arginine present ([4]; arginine (1 mM) in the media): no inhibitory activity
- Inhibitory activity on growth with arginine present [5]: no inhibitory activity
- MIC ([5]; Mycobacterium tuberculosis): 50 µg/mL (≈ 284 µM)
- MIC [6]: > 200 µg/mL

SMILES: NC(=O)NCCC[C@H](N)C(=O)O [L-citruline, L-citrulline, reference compound]
- ΔTm at 1000 µM ([7]; read-out: DSF ΔTm): 1 °C

SMILES: NCCC[C@H](N)C(=O)O [L-ornithine, reference compound]
- DSF ΔTm [7]: 1.5 °C

SMILES: NC(=O)c1ccc[n+]([C@@H]2O[C@H](COP(=O)([O-])OP(=O)(O)OC[C@H]3O[C@@H](n4cnc5c(N)ncnc54)[C@H](OP(=O)(O)O)[C@@H]3O)[C@@H](O)[C@H]2O)c1 [NADP, reference compound]
- DSF ΔTm [8]: +0.6 °C
- DSF ΔTm ([8]; listed as NADP^+): ~ 0.6 °C
- SPR Binding Response ([9]; 1.25 mM): 19.5 (1.25 mM) RU
- Binding site (X-ray) [10]: Co-factor

SMILES: NC(=O)C1=CN([C@@H]2O[C@H](COP(=O)(O)OP(=O)(O)OC[C@H]3O[C@@H](n4cnc5c(N)ncnc54)[C@H](OP(=O)(O)O)[C@@H]3O)[C@@H](O)[C@H]2O)C=CC1 [NADPH, reference compound]
- DSF ΔTm [8]: −0.9 °C
- SPR Binding Response ([9]; 1.25 mM): 16.3 (1.25 mM) RU
- Binding site (X-ray) [10]: Co-factor

SMILES: CC(=O)N[C@@H](CCC(=O)O)C(=O)O [NAG, N-acetyl-L-glutamic acid]
- ΔTm at 1000 µM [1]: 8.6 °C

SMILES: COc1ccc2[nH]cc(CC(=O)O)c2c1 [NMR322, 5-Methoxy-3-indoleacetic acid]
- ΔTm at 5000 µM [8]: 3.1 °C
- SPR Binding Response [9, 13]: 80.5 RU
- Binding site (X-ray) [10]: Substrate
- inhibition at 2000 µM [11]: 45%

SMILES: Nc1ccc(Oc2ccccc2)nc1 [NMR401, 6-phenoxy-3-pyridinamine]
- ΔTm at 5000 µM [8]: 4.8 °C
- SPR Binding Response [9, 13]: 36.7 RU
- Binding site (X-ray) [10]: Co-factor
- inhibition at 2000 µM [11]: 10%

SMILES: O=C(O)C1c2ccccc2Oc2ccccc21 [NMR571, Xanthene-9-carboxylic acid]
- ΔTm at 5000 µM [8]: 3.1 °C
- SPR Binding Response [9, 13]: 78.0 RU
- Binding site (X-ray) [10]: Substrate
- inhibition at 2000 µM [11]: 37%

SMILES: COc1ccc2oc(C(=O)O)nc2c1 [NMR863, 5-methoxy-1,3-benzoxazole-2-carboxylic acid]
- ΔTm at 5000 µM [8]: 5 °C
- SPR Binding Response [9, 13]: 41.6 RU
- Binding site (X-ray) [10]: Co-factor
- inhibition at 2000 µM [11]: 12%

SMILES: Cc1ncc(COP(=O)(O)O)c(C=O)c1O [PLP, pyridoxal-5′-phosphate]
- Melting temperature of ArgD after addition of PLP [12]: 79 °C
- ΔTm at 1000 µM ([12]; PLP (1 mM), PLP-unsaturated ArgD): 13 °C
- Melting temperature of ArgD after addition of PLP ([12]; PLP-unsaturated ArgD + 1 mM PLP): 77.5 °C
